Columns and labels:
F98 rat glioma cells [1] = assay: In vitro 10B uptake in F98 cells (ICP-AES); assay type: cell-based; details: 24 h incubation in DMEM with 1 mM boron compound
Method: (§1) For the in vitro ^10B uptake study, B16 mouse melanoma cells, C6 rat glioma cells, and F98 rat glioma cells were used. B16 and C6 cells were used for in vitro testing at Osaka Prefecture University. Based on results from initial in vitro screening, the in vitro ^10B uptake study using F98 glioma cells were performed at Osaka Medical College. Four hundred thousand cells were seeded in a tissue culture dish (100 × 20 mm; Becton Dickinson, Franklin Lakes, NJ, USA) with DMEM supplemented with 10% FBS and 10% penicillin and streptomycin at 37 °C in a 5% CO2 atmosphere. After incubation for 4 days at 37 °C, the medium was removed, and DMEM with 10% FBS containing 1 mM KA-BSH, BSH, or BPA was added to each dish. The cells were incubated for an additional 24 h at 37 °C. The medium was then removed, and the cells were washed twice with 4 °C phosphate-buffered saline (PBS) and detached with trypsin–ethylenediamine tetraacetic acid solution. PBS was then added, and cells were digested overnight with 1 N nitric acid solution (Wako Pure Chemical Industries, Osaka, Japan), and ^10B uptake was determined by inductively coupled plasma atomic emission spectrometry (ICP-AES) using an iCAP6000 emission spectrometer (Hitachi High-Technologies, Tokyo, Japan).

F98 rat glioma cells [2] = assay: Cell viability assay (WST-8) in F98 cells; assay type: cell-based; details: WST-8 test, read-out: IC50 (cytotoxicity)
Method: The cytotoxicity of KA-BSH was assayed using the water soluble tetrazolium (WST)-8 assay with a cell-counting kit (Wako Pure Chemicals, Osaka, Japan) following a modified version of the manufacturer-provided protocols. Relative cell survival was calculated according to Equation (1):(1) Relative cell survival (%)=absorbance value of compound treated well/absorbance value of untreated well×100

F98 glioma bearing rats = assay: In vivo BNCT therapeutic experiment, neutron irradiation at KURRI; parameters: species or system rat
Excerpt: All animal experimental procedures were approved by the Animal Use Review Board and Ethical Committee of Osaka Medical College (No. 25092, 28 October 2015) and Kyoto University Research Reactor Institute (KURRI, No. 25030-13, 1 April 2015), and performed following the Guide for the Care and Use of Laboratory Animals. Eight-week-old, male Fischer 344 rats weighing between 200 and 250 g were used (Japan SLC, Inc. Shizuoka, Japan). Rats were anesthetized with an intraperitoneal (ip) injection of a mixture of medetomidine 0.15 mg, midazolam 2 mg, and butorphanol 2.5 mg/kg body weight (bw). The head of each rat was fixed with a stereotactic frame (Model 900; David Kopf Instruments, Tujunga, CA, USA). The scalp was incised at the midline and a small burr hole was drilled into the skull (1 mm posterior and 4 mm right-lateral to the bregma), using an electric drill. And then, F98 glioma cells were injected into the brain using a 25 µL Hamilton microsyringe with a 26-gauge needle (model 1700 RN, Hamilton Bonaduz AG, Bonaduz, Switzerland). The needle was inserted at a 5 mm depth from the skull and F98 cells were diluted in 10 µL of DMEM containing low-gelling temperature agarose at a concentration of either 10^3 for therapeutic experiments or 10^5 cells for biodistribution experiments. They were injected over 30 s using an automatic infuser pump. The needle entry hole was immediately sealed with bone wax and the incised scalp was closed with 3-0 silk sutures (Ethicon, North Ryde, NSW). […]
Therapeutic experiments for BNCT were performed 14 days after stereotactic implantation of 10^3 F98 glioma cells. […] The therapeutic effect of BNCT was evaluated by the survival time of the animals. […]
The means and standard deviations (SD) were computed for ^10B concentrations of F98 glioma cells and tissues of Fischer rats bearing intracerebral implants of the F98 glioma. […] Statistical differences between means were calculated using the Student’s unpaired t-test. In therapeutic experiments, the median survival time (MST) was calculated for each group using the Kaplan–Meier estimate. […]

B16 mouse melanoma cells = assay: In vitro boron uptake in B16 cells; assay type: cell-based; details: Figure S1
Method: as §1

[3] = 10 mg 10B/kg iv, BNCT 1 h after administration

Substance: S-(2-(5-hydroxy-4-oxo-4H-pyran-2-yl) methyl) Thioundecahydro-Closo- Dodecaborate (2-) Disodium Salt [KA-BSH]
- 10B concentration of F98 rat glioma cells (F98 rat glioma cells [1]): 0.821 ± 0.047 µg 10B/10^7 cells
- IC50 (F98 rat glioma cells [2]): 10.4 mM
- Survival Time, Median (MST) (F98 glioma bearing rats; [3]): 36.0 days
- Survival Time, Range (F98 glioma bearing rats; [3]): 32 – 38
- %ILS Median (percent increase life span) (F98 glioma bearing rats; relative to median survival time of untreated controls): 22.0%
- boron uptake into cancer cells (B16 mouse melanoma cells): taken up into cancer cells

From PMC7349888, “Synthesis and Evaluation of Dodecaboranethiol Containing Kojic Acid (KA-BSH) as a Novel Agent for Boron Neutron Capture Therapy” (Cells, 2020)
